Results taken from patent US20240415807A1, “AGENT FOR PREVENTING OR AMELIORATING PRURITUS” (KAO CORPORATION, priority 2021, published 2024).

Key:
C3a receptor = target: T1, C3a receptor (Homo sapiens, UniProt Q16581); assay: Ca2+-flux assay of C3a receptor antagonism in transfected HEK293 cells; assay type: cell-based; settings: antagonist 10 nM, mouse TLQP-21 1 μM, 15 minutes preincubation, HEK293 with C3a receptor and GNA16 vectors, vs control; FIG. 6
T1 sequence (Q16581 1-482): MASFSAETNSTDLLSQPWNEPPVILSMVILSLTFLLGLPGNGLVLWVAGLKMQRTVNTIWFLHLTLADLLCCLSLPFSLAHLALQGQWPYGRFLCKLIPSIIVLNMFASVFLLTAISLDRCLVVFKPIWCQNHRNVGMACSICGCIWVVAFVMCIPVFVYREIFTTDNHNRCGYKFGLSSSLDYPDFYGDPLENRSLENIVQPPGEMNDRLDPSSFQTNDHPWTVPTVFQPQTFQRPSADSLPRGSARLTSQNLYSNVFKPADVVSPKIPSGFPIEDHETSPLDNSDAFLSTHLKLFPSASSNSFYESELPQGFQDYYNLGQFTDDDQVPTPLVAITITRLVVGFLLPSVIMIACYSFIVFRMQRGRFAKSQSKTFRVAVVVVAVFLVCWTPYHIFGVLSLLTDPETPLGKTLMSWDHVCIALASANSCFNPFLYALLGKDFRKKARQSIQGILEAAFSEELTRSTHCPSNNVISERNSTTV
Procedure: In the following evaluation, Compound 1 and Compound 2 were dissolved in DMSO and diluted with HBSS as appropriate.
Human Embryonic Kidney cells 293 (HEK293) were used, transfected with the expression vectors necessary for evaluation according to the following.
A transfection solution was prepared by sequentially adding C3a receptor expression vector, GNA16 expression vector, and PEI-MAX (PolyScience) solution to serum-free DMEM medium, mixing well, and then allowing it to stand at room temperature for 20 minutes. […]
The cells for evaluating C3a receptor response described above were seeded in a 96-well Black Polystyrene Microplate (Thermo fisher scientific) precoated with Poly-L-Ornithine Solution (FUJIFILM Wako Pure Chemical). […] After 15 minutes, a mouse TLQP-21 solution was added for C3a receptor stimulation, and the Ca^2+ influx associated with the stimulation was measured over time as intracellular fluorescence intensity (Ex: 494 nm, Em: 525 nm). The value obtained by subtracting the measured value when HBSS was added instead of mouse TLQP-21 solution (blank) was used as the measured value. The C3a receptor antagonist solution and mouse TLQP-21 solution were added after adjusting their concentrations by appropriately diluting them so that their final concentrations when measuring fluorescence intensity were 10 nM and 1 μM, respectively. […]

[1] = system: AEW model mice (C57BL/6J); assay: Amelioration of pruritus in AEW model mice (scratching behavior, MicroAct); assay type: in vivo, mouse; settings: 200 μL subcutaneous, 0.5 mg/mL Compound 1 or 0.05 mg/mL Compound 2, once daily for 8 days; measured 3 hours; vs solvent alone; FIG. 8
Excerpt: The animals used were male C57BL/6J mice.
Preparation of AEW model: The back of the neck was shaved, and absorbent cotton soaked with a 1:1 (v/v) mixture of acetone and diethyl ether was applied and allowed to stand for 15 seconds. Immediately thereafter, absorbent cotton soaked with water was applied for 30 seconds. This treatment was repeated twice/day (morning and evening) for 7 days.
(§1) Compound 1 or Compound 2, whose C3a receptor antagonism was confirmed in Example 4 above, was used as a C3a receptor antagonist. Compound 1 or Compound 2 was dissolved in saline containing 20% polyethylene glycol 400, of which 200 μL was administered subcutaneously to the back of the neck. The control group was administered with the same amount of only the above solvent. The concentration of the C3a receptor antagonist solution was set at 0.5 mg/mL for Compound 1 and 0.05 mg/mL for Compound 2. Sample administration started after the first AEW treatment and was performed at a frequency of once daily for 8 days.
Sixteen hours after the last AEW treatment, the scratching behavior was measured for 3 hours after the last administration of the sample. MicroAct (Neuroscience) was used to measure the scratching behavior.

[2] = system: AD model mice (NC/Nga, mite allergen-induced); assay: Amelioration of pruritus in AD model mice (scratching behavior, MicroAct); assay type: in vivo, mouse; settings: 200 μL subcutaneous, 0.5 mg/mL Compound 1 or 0.05 mg/mL Compound 2, three times a week; measured 3 hours; vs solvent alone; FIG. 7
Procedure: Seven-week-old female NC/Nga mice were used. Preparation of AD model mice: The back of the neck was shaved, and 100 mg of an ointment containing mite allergen: Biostir AD (Biostir Inc.) was applied to the back of the neck and auricular region under isoflurane anesthesia for initial sensitization. Four days after the first application of the ointment containing mite allergen, 150 μL of 4% (w/v) SDS solution and 100 mg of ointment containing mite allergen were applied to the back of the neck and auricular region under isoflurane anesthesia. Thereafter, the same procedure was performed four times at a frequency of once every 3 to 4 days to induce AD-like dermatitis.
as §1, with “Sample administration started after the first AEW treatment and was performed at a frequency of once daily for 8 days.” left out
Four days after the last application of the ointment containing mite allergen, the scratching behavior was measured for 3 hours after the last administration of the sample. […]

| Structure (SMILES) | Fluorescence intensity due to C3a receptor stimulation by TLQP-21 (integrated over 3 min) (C3a receptor) | Scratching behavior in AEW model mice [1] | Scratching behavior in AD model mice [2] |
| --- | --- | --- | --- |
| N=C(N)NCCC[C@H](NC(=O)c1ccc(C(c2ccccc2)c2ccccc2)s1)C(=O)O [Compound 1, L-arginine, N2-[[5-(diphenylmethyl)-2-thienyl]carbonyl]] | greatly suppressed | significant decrease in scratching behavior | significant decrease in scratching behavior |
| Cc1cc(C(c2ccc(Cl)cc2)c2ccc(Cl)cc2)sc1C(=O)N[C@@H](CCCNC(=N)N)C(=O)O [Compound 2, L-arginine, N2-[[5-[bis(4-chlorophenyl)methyl]-3-methyl-2-thienyl]carbonyl]] | greatly suppressed | significant decrease in scratching behavior | significant decrease in scratching behavior |
